In ChEMBL document CHEMBL1201862, “PubChem BioAssay data set” (2004):
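How tested: cells in 96-well plates exposed to compound for 48 hours at five concentrations. GI50 = concentration required for 50% inhibition of growth.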 Calls of active or inactive are those of the source. No stated cut-off is given here; in the data, active = GI50 up to about 1.1 µM and inactive = higher.

Experiments:
Experiment in all cases: inhibition of tumour cell growth, NCI panel, 48 h
[1] = system: MOLT-4
[2] = system: SF-539
[3] = system: TK-10
[4] = system: A549
[5] = system: SNB-75
[6] = system: M14
[7] = system: SK-MEL-28
[8] = system: NCI-H23
[9] = system: SN12C
[10] = system: HT-29
[11] = system: SNB-19
[12] = system: KM12
[13] = system: SW-620
[14] = system: SR
[15] = system: IGROV-1
[16] = system: OVCAR-8
[17] = system: HOP-92

For `CCC(Oc1ccc(OC)c2ccccc(=O)c12)C(=O)O` (configuration not stated), the GI50 [1] was > 100 µM (inactive), the GI50 [2] was > 100 µM (inactive) and the GI50 [3] was > 100 µM (inactive). The GI50 [4] was > 100 µM (inactive), the GI50 [5] was > 100 µM (inactive) and the GI50 [6] was > 100 µM (inactive). The GI50 [7] was > 100 µM (inactive), the GI50 [8] was > 100 µM (inactive) and the GI50 [9] was > 100 µM (inactive). For the same compound, the GI50 [10] was > 100 µM (inactive), the GI50 [11] was > 100 µM (inactive) and the GI50 [12] was > 100 µM (inactive). For the same compound, the GI50 [13] was > 100 µM (inactive), the GI50 [14] was > 100 µM (inactive) and the GI50 [15] was > 100 µM (inactive). For the same compound, the GI50 [16] was > 100 µM (inactive).

For `COc1ccc(/C=C2/C(=O)N(C(=O)c3ccc(Cl)cc3)N=C2C)cc1OC`, the GI50 [2] was > 100 µM (inactive), the GI50 [3] was > 100 µM (inactive) and the GI50 [4] was > 100 µM (inactive). The GI50 [17] was > 100 µM (inactive), the GI50 [6] was > 100 µM (inactive) and the GI50 [7] was > 100 µM (inactive). The GI50 [8] was > 100 µM (inactive), the GI50 [9] was > 100 µM (inactive) and the GI50 [10] was > 100 µM (inactive). For the same compound, the GI50 [11] was > 100 µM (inactive), the GI50 [12] was > 100 µM (inactive) and the GI50 [13] was > 100 µM (inactive). The GI50 [15] was > 100 µM (inactive) and the GI50 [16] was > 100 µM (inactive).

For `Cc1ccc(S(=O)(=O)OC2CC=CC2)cc1`, the GI50 [1] was > 100 µM (inactive), the GI50 [3] was > 100 µM (inactive) and the GI50 [4] was > 100 µM (inactive). For the same compound, the GI50 [17] was > 100 µM (inactive), the GI50 [5] was > 100 µM (inactive) and the GI50 [6] was > 100 µM (inactive). For the same compound, the GI50 [7] was > 100 µM (inactive), the GI50 [9] was > 100 µM (inactive) and the GI50 [10] was > 100 µM (inactive). For the same compound, the GI50 [11] was > 100 µM (inactive), the GI50 [12] was > 100 µM (inactive) and the GI50 [13] was > 100 µM (inactive). For the same compound, the GI50 [15] was > 100 µM (inactive) and the GI50 [16] was > 100 µM (inactive).

With `CC(C)c1cc2c(O)c(c1)Cc1cc(C(C)C)cc(c1O)Cc1cc(C(C)C)cc(c1O)Cc1cc(C(C)C)cc(c1O)C2` the GI50 [1] was > 100 µM (inactive), the GI50 [2] was > 100 µM (inactive) and the GI50 [3] was > 100 µM (inactive). For the same compound, the GI50 [4] was > 100 µM (inactive), the GI50 [17] was > 100 µM (inactive) and the GI50 [5] was > 100 µM (inactive). The GI50 [8] was > 100 µM (inactive), the GI50 [10] was > 100 µM (inactive) and the GI50 [11] was > 100 µM (inactive). For the same compound, the GI50 [12] was > 100 µM (inactive), the GI50 [13] was > 100 µM (inactive) and the GI50 [14] was > 100 µM (inactive). The GI50 [15] was > 100 µM (inactive) and the GI50 [16] was > 100 µM (inactive).

With `CC(=O)Nc1cc(N(CCOS(C)(=O)=O)CCOS(C)(=O)=O)ccc1N=O` the GI50 [1] was > 100 µM (inactive), the GI50 [2] was > 100 µM (inactive) and the GI50 [3] was > 100 µM (inactive). For the same compound, the GI50 [4] was > 100 µM (inactive), the GI50 [17] was > 100 µM (inactive) and the GI50 [5] was > 100 µM (inactive). For the same compound, the GI50 [6] was > 100 µM (inactive), the GI50 [7] was > 100 µM (inactive) and the GI50 [8] was > 100 µM (inactive). For the same compound, the GI50 [10] was > 100 µM (inactive), the GI50 [11] was > 100 µM (inactive) and the GI50 [12] was > 100 µM (inactive). For the same compound, the GI50 [13] was > 100 µM (inactive), the GI50 [14] was > 100 µM (inactive) and the GI50 [15] was > 100 µM (inactive). For the same compound, the GI50 [16] was > 100 µM (inactive).

For `CC(C)C1(O)C(c2ccccc2)=C(c2ccccc2)C(c2ccccc2)=C1c1ccccc1`, the GI50 [1] was 3.21 µM (inactive), the GI50 [2] was 12.5 µM (inactive) and the GI50 [3] was 5.74 µM (inactive). The GI50 [4] was 6.76 µM (inactive), the GI50 [17] was 4.38 µM (inactive) and the GI50 [5] was 12.3 µM (inactive). The GI50 [6] was 6.95 µM (inactive), the GI50 [8] was 9.59 µM (inactive) and the GI50 [9] was 5.31 µM (inactive). The GI50 [10] was 4.26 µM (inactive), the GI50 [11] was 21.8 µM (inactive) and the GI50 [12] was 4.9 µM (inactive). The GI50 [13] was 6.12 µM (inactive), the GI50 [14] was 2.96 µM (inactive) and the GI50 [15] was 6.15 µM (inactive). For the same compound, the GI50 [16] was 10.3 µM (inactive).

For `CCN(CC)CCN1C(=O)CC2[C@@H]3CCc4cc(OC)ccc4C3CC[C@]2(C)C1=O` (some centres not stated), the GI50 [1] was > 10 µM (inactive), the GI50 [2] was 0.0134 µM (active) and the GI50 [17] was 24 µM (inactive). The GI50 [5] was 33 µM (inactive), the GI50 [6] was 17.7 µM (inactive) and the GI50 [7] was 17.9 µM (inactive). For the same compound, the GI50 [8] was 91.2 µM (inactive), the GI50 [10] was 18.4 µM (inactive) and the GI50 [11] was > 100 µM (inactive). For the same compound, the GI50 [12] was 33.5 µM (inactive), the GI50 [14] was > 10 µM (inactive) and the GI50 [15] was 75.2 µM (inactive).
